In PMC11005681, “Growth‐Coupled Evolutionary Pressure Improving Epimerases for D‐Allulose Biosynthesis Using a Biosensor‐Assisted In Vivo Selection Platform” (Advanced Science, 2024):

Assays:
[1] = biological target: T1, ADAE (Agrobacterium sp. SUL3 D-allulose 3-epimerase) (Agrobacterium sp. SUL3, UniProt Z9QCC6USU8); experiment: X-ray crystal structure of complex; type: binding; conditions: active site with Mg2+; PDB id not printed in main text
T1 construct: homotetramer; each subunit an (alpha/beta)8 barrel with Mg2+ site
T1 sequence (Z9QCC6USU8 1-284): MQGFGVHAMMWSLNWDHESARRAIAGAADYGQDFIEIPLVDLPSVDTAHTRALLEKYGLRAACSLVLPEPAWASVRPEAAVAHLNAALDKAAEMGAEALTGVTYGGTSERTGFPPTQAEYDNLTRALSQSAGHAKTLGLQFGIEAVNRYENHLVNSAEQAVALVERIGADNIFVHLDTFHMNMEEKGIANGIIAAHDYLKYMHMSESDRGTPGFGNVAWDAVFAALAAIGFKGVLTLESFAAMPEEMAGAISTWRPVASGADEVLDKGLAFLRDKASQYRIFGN

[2] = biological target: Agrobacterium sp. SUL3 D-allulose 3-epimerase (Agrobacterium sp. SUL3); experiment: crystal structure; X-ray crystal structures of ADAE alone and in complex with D-fructose or D-allulose; oligomer seen in the structure

| Compound | X-ray crystal structure of complex [1] | stoichiometry N [2] |
| --- | --- | --- |
| O=C(CO)[C@H](O)[C@H](O)[C@H](O)CO [D-allulose] | X-ray crystal structures of ADAE alone and in complex with different ligands, including D‐fructose and D‐allulose |  |
| Agrobacterium sp. SUL3 D-allulose 3-epimerase (enzyme) |  | 4 |
| OCC1(O)OC[C@@H](O)[C@@H](O)[C@@H]1O (stereo partly drawn) [D-fructose] | X-ray crystal structures of ADAE alone and in complex with different ligands, including D‐fructose and D‐allulose |  |
